Data as given in patent publication US8785419B2, “Cavity induced allosteric modification of intermolecular interactions and methods of identifying compounds that effect the same” (The Trustees Of The University Of Pennsylvania, priority 1998, dated 2014).

Test system: T cell activation associated with MHC/antigen/TCR complexes
Assay: In vitro T cell activation assays
Format: cell-based

SMILES: O=C(CNC(=O)N1CCCC1)NNC(=O)Nc1ccc2ccccc2c1 [Formula IV]
- activity in in vitro T cell activation assays: showed activity
